{
  "source": "patent US12152012B2",
  "about": "“BRAG2 inhibitors and applications thereof” (CENTRE NATIONAL DE LA RECHERCHE SCIENTIFIQUE, priority 2018, dated 2024)",
  "key": {"[1]": {"target": "T1, BIG1 (DCB-HUS-Sec7 construct) (Homo sapiens, UniProt Q9Y6D6)", "T1 construct": "BIG1^Sec7 (691-889), BIG1^DcbHusSec7 (2-888); made in house", "T1 sequence (Q9Y6D6 2-888)": "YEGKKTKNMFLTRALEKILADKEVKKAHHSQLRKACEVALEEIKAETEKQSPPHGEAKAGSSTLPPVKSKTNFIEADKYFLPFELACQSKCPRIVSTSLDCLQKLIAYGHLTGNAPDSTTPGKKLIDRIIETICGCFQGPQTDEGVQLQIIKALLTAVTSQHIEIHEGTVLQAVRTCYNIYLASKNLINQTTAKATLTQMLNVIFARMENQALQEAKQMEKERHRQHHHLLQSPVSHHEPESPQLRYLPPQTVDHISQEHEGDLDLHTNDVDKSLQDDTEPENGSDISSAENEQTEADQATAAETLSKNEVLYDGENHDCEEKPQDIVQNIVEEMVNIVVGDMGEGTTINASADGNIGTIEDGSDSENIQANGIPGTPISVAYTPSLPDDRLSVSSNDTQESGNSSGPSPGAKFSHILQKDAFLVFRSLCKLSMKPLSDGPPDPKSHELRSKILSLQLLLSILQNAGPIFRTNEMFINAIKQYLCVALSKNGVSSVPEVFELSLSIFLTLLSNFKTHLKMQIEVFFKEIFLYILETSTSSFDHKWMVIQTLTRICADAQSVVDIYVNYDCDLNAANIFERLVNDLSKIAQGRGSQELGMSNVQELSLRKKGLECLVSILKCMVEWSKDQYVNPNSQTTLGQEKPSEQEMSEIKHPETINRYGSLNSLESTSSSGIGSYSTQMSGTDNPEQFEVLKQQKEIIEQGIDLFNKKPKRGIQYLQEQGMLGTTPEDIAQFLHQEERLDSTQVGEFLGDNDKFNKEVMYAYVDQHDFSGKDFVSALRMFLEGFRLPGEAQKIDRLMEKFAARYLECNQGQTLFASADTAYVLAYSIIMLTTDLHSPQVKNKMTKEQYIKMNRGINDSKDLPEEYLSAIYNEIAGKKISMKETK", "assay": "Nucleotide exchange kinetics on liposomes, activation of myristoylated Arf1", "assay_type": "biochemical", "details": "50 μM"}, "[2]": {"target": "T2, EFA6 (Sec7PHCt construct) (Homo sapiens, UniProt A5PKW4)", "T2 construct": "human EFA6^Sec7 (527-727) and EFA6^Sec7PHCt (527-1024); made in house", "T2 sequence (A5PKW4 527-1024)": "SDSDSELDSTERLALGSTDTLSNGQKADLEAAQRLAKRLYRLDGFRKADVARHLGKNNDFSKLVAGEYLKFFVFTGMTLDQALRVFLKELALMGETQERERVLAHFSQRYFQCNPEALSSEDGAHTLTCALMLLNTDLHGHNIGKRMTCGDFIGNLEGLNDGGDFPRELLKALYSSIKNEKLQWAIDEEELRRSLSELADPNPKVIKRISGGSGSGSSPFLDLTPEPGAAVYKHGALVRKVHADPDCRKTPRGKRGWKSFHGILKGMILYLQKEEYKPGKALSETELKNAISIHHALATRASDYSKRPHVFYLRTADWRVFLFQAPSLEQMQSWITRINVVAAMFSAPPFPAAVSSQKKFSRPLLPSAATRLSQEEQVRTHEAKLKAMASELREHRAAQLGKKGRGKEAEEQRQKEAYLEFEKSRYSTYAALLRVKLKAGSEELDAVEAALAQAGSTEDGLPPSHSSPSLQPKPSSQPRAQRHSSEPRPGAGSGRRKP", "assay": "Nucleotide exchange kinetics on liposomes, activation of myristoylated Arf1", "assay_type": "biochemical", "details": "50 μM"}},
  "data": [
    {"compound": "Cc1ccc2oc(C(F)(F)F)cc(=O)c2c1[N+](=O)[O-]", "note": "[Bragsin1, 6-methyl-5-nitro-2-(trifluoromethyl)-4H-chromen-4-one]", "values": [
      {"measurement": "Effect on ArfGEF activity on liposomes", "setting": "[1]", "value": "no effect"},
      {"measurement": "Effect on ArfGEF activity on liposomes", "setting": "[2]", "value": "no effect"}
    ]}
  ]
}
